Laboratory results: PubChem BioAssay AID1259407 (Chemical Carcinogenesis Research Information System (CCRIS), 2018)
Activity calls are given as the source filed them. No rule for the calls is given here.

System: CCRIS mutagenicity, Ames/micronucleus/aberration tests
Assay: CCRIS mutagenicity studies

Structure (SMILES): CCCCC=O
- mutagenic call (Test System: AMES SALMONELLA TYPHIMURIUM, Strain/Indicator: TA98, Metabolic Activation: HAMSTER, LIVER, S-9, AROCLOR 1254, Method: STANDARD PLATE): inactive; negative
- mutagenic call (Test System: AMES SALMONELLA TYPHIMURIUM, Strain/Indicator: TA98, Metabolic Activation: NONE, Method: STANDARD PLATE): inactive; negative
- mutagenic call (Test System: AMES SALMONELLA TYPHIMURIUM, Strain/Indicator: TA98, Metabolic Activation: RAT, LIVER, S-9, AROCLOR 1254, Method: STANDARD PLATE): inactive; negative
- mutagenic call (Test System: AMES SALMONELLA TYPHIMURIUM, Strain/Indicator: TA100, Metabolic Activation: HAMSTER, LIVER, S-9, AROCLOR 1254, Method: STANDARD PLATE): inactive; negative
- mutagenic call (Test System: AMES SALMONELLA TYPHIMURIUM, Strain/Indicator: TA100, Metabolic Activation: NONE, Method: STANDARD PLATE): inactive; negative
- mutagenic call (Test System: AMES SALMONELLA TYPHIMURIUM, Strain/Indicator: TA100, Metabolic Activation: RAT, LIVER, S-9, AROCLOR 1254, Method: STANDARD PLATE): inactive; negative
- mutagenic call (Test System: AMES SALMONELLA TYPHIMURIUM, Strain/Indicator: TA1535, Metabolic Activation: HAMSTER, LIVER, S-9, AROCLOR 1254, Method: STANDARD PLATE): inactive; negative
- mutagenic call (Test System: AMES SALMONELLA TYPHIMURIUM, Strain/Indicator: TA1535, Metabolic Activation: NONE, Method: STANDARD PLATE): inactive; negative
- mutagenic call (Test System: AMES SALMONELLA TYPHIMURIUM, Strain/Indicator: TA1535, Metabolic Activation: RAT, LIVER, S-9, AROCLOR 1254, Method: STANDARD PLATE): inactive; negative
- mutagenic call (Test System: AMES SALMONELLA TYPHIMURIUM, Strain/Indicator: TA1537, Metabolic Activation: HAMSTER, LIVER, S-9, AROCLOR 1254, Method: STANDARD PLATE): inactive; negative
- mutagenic call (Test System: AMES SALMONELLA TYPHIMURIUM, Strain/Indicator: TA1537, Metabolic Activation: NONE, Method: STANDARD PLATE): inactive; negative
- mutagenic call (Test System: AMES SALMONELLA TYPHIMURIUM, Strain/Indicator: TA1537, Metabolic Activation: RAT, LIVER, S-9, AROCLOR 1254, Method: STANDARD PLATE): inactive; negative
- mutagenic call (Test System: AMES SALMONELLA TYPHIMURIUM, Strain/Indicator: TA1538, Metabolic Activation: HAMSTER, LIVER, S-9, AROCLOR 1254, Method: STANDARD PLATE): inactive; negative
- mutagenic call (Test System: AMES SALMONELLA TYPHIMURIUM, Strain/Indicator: TA1538, Metabolic Activation: NONE, Method: STANDARD PLATE): inactive; negative
- mutagenic call (Test System: AMES SALMONELLA TYPHIMURIUM, Strain/Indicator: TA1538, Metabolic Activation: RAT, LIVER, S-9, AROCLOR 1254, Method: STANDARD PLATE): inactive; negative
- mutagenic call (Test System: CHINESE HAMSTER V-79, Strain/Indicator: V-79/6-THIOGUANINE (HGPRT), Metabolic Activation: NONE, Method: REPLATING): active; positive
- mutagenic call (Test System: CHINESE HAMSTER V-79, Strain/Indicator: V-79/OUABAIN (NA/K), Metabolic Activation: NONE, Method: REPLATING): active; positive
- mutagenic call (Test System: MOUSE LYMPHOMA, Strain/Indicator: L5178Y (TK+/TK-), Metabolic Activation: NONE, Method: SUSPENSION/PLATE): active; positive. reevaluation of results: positive
- mutagenic call (Test System: MOUSE LYMPHOMA, Strain/Indicator: L5178Y (TK+/TK-), Metabolic Activation: RAT, LIVER, S-9, AROCLOR 1254, Method: SUSPENSION/PLATE): inactive; negative. reevaluation of results: negative
- mutagenic call (Test System: UDS HUMAN HEPATOCYTES, Strain/Indicator: THY INCORP, Metabolic Activation: NONE, Method: AUTORADIOGRAPHY): inactive; negative
- mutagenic call (Test System: UDS RAT HEPATOCYTES, Strain/Indicator: THY INCORP, Metabolic Activation: NONE, Method: AUTORADIOGRAPHY): active; positive

Structure (SMILES): CC1(C)[C@@H]2CC[C@@]1(C)[C@@H](O)C2
- mutagenic call (Test System: AMES SALMONELLA TYPHIMURIUM, Strain/Indicator: TA97, Metabolic Activation: NONE, Method: PREINCUBATION): inactive; negative
- mutagenic call (Test System: AMES SALMONELLA TYPHIMURIUM, Strain/Indicator: TA97, Metabolic Activation: NONE, Method: PREINCUBATION (20 MIN)): inactive; negative
- mutagenic call (Test System: AMES SALMONELLA TYPHIMURIUM, Strain/Indicator: TA97, Metabolic Activation: RAT, LIVER, S-9, AROCLOR 1254, Method: PREINCUBATION): inactive; negative
- mutagenic call (Test System: AMES SALMONELLA TYPHIMURIUM, Strain/Indicator: TA97, Metabolic Activation: S-9, Method: PREINCUBATION (20 MIN)): inactive; negative
- mutagenic call (Test System: AMES SALMONELLA TYPHIMURIUM, Strain/Indicator: TA98, Metabolic Activation: NONE, Method: PREINCUBATION (20 MIN)): inactive; negative
- mutagenic call (Test System: AMES SALMONELLA TYPHIMURIUM, Strain/Indicator: TA98, Metabolic Activation: S-9, Method: PREINCUBATION (20 MIN)): inactive; negative
- mutagenic call (Test System: AMES SALMONELLA TYPHIMURIUM, Strain/Indicator: TA100, Metabolic Activation: NONE, Method: PREINCUBATION (20 MIN)): inactive; negative
- mutagenic call (Test System: AMES SALMONELLA TYPHIMURIUM, Strain/Indicator: TA100, Metabolic Activation: S-9, Method: PREINCUBATION (20 MIN)): inactive; negative
- mutagenic call (Test System: AMES SALMONELLA TYPHIMURIUM, Strain/Indicator: TA102, Metabolic Activation: NONE, Method: PREINCUBATION): inactive; negative
- mutagenic call (Test System: AMES SALMONELLA TYPHIMURIUM, Strain/Indicator: TA102, Metabolic Activation: RAT, LIVER, S-9, AROCLOR 1254, Method: PREINCUBATION): inactive; negative

Structure (SMILES): FC(F)Cl
- mutagenic call (End Point: IN VITRO CHROMOSOMAL ABERRATIONS, Test System: CHL CELLS, Metabolic Activation: NONE): inactive; negative
- mutagenic call (End Point: IN VITRO CHROMOSOMAL ABERRATIONS, Test System: CHL CELLS, Metabolic Activation: RAT, LIVER, S-9, SODIUM PHENOBARBITAL AND 5,6-BENZOFLAVONE): inactive; negative
- mutagenic call (Test System: AMES SALMONELLA TYPHIMURIUM, Strain/Indicator: TA98, Metabolic Activation: NONE, Method: GAS EXPOSURE): inactive; negative
- mutagenic call (Test System: AMES SALMONELLA TYPHIMURIUM, Strain/Indicator: TA98, Metabolic Activation: RAT LIVER S-9, PHENOBARBITAL AND BETA-NAPHTHOFLAVONE (40%), Method: GAS EXPOSURE): inactive; negative
- mutagenic call (Test System: AMES SALMONELLA TYPHIMURIUM, Strain/Indicator: TA98, Metabolic Activation: RAT, LIVER, S-9, PHENOBARBITAL AND 5,6-BENZOFLAVONE, Method: GAS EXPOSURE): inactive; negative
- mutagenic call (Test System: AMES SALMONELLA TYPHIMURIUM, Strain/Indicator: TA100, Metabolic Activation: RAT LIVER S-9, PHENOBARBITAL AND BETA-NAPHTHOFLAVONE (40%), Method: GAS EXPOSURE): active; positive
- mutagenic call (Test System: AMES SALMONELLA TYPHIMURIUM, Strain/Indicator: TA100, Metabolic Activation: RAT, LIVER, S-9, PHENOBARBITAL AND 5,6-BENZOFLAVONE, Method: GAS EXPOSURE): active; positive
- mutagenic call (Test System: AMES SALMONELLA TYPHIMURIUM, Strain/Indicator: TA1535, Metabolic Activation: NONE, Method: GAS EXPOSURE): active; positive
- mutagenic call (Test System: AMES SALMONELLA TYPHIMURIUM, Strain/Indicator: TA1535, Metabolic Activation: RAT LIVER S-9, PHENOBARBITAL AND BETA-NAPHTHOFLAVONE (40%), Method: GAS EXPOSURE): active; positive
- mutagenic call (Test System: AMES SALMONELLA TYPHIMURIUM, Strain/Indicator: TA1535, Metabolic Activation: RAT, LIVER, S-9, AROCLOR 1254, Method: DESICCATOR): active; positive
- mutagenic call (Test System: AMES SALMONELLA TYPHIMURIUM, Strain/Indicator: TA1535, Metabolic Activation: RAT, LIVER, S-9, PHENOBARBITAL AND 5,6-BENZOFLAVONE, Method: GAS EXPOSURE): active; positive
- mutagenic call (Test System: AMES SALMONELLA TYPHIMURIUM, Strain/Indicator: TA1537, Metabolic Activation: NONE, Method: GAS EXPOSURE): inactive; negative
- mutagenic call (Test System: AMES SALMONELLA TYPHIMURIUM, Strain/Indicator: TA1537, Metabolic Activation: RAT LIVER S-9, PHENOBARBITAL AND BETA-NAPHTHOFLAVONE (40%), Method: GAS EXPOSURE): inactive; negative
- mutagenic call (Test System: AMES SALMONELLA TYPHIMURIUM, Strain/Indicator: TA1537, Metabolic Activation: RAT, LIVER, S-9, PHENOBARBITAL AND 5,6-BENZOFLAVONE, Method: GAS EXPOSURE): inactive; negative
- mutagenic call (Test System: E. COLI, Strain/Indicator: WP2 UVRA, Metabolic Activation: NONE, Method: GAS EXPOSURE): inactive; negative
- mutagenic call (Test System: E. COLI, Strain/Indicator: WP2 UVRA, Metabolic Activation: RAT, LIVER, S-9, PHENOBARBITAL AND 5,6-BENZOFLAVONE, Method: GAS EXPOSURE): inactive; negative
- mutagenic call (Test System: E.COLI, Strain/Indicator: WP2UVRA, Metabolic Activation: NONE, Method: GAS EXPOSURE): inactive; negative
- mutagenic call (Test System: E.COLI, Strain/Indicator: WP2UVRA, Metabolic Activation: RAT LIVER S-9, PHENOBARBITAL AND BETA-NAPHTHOFLAVONE (40%), Method: GAS EXPOSURE): inactive; negative
